Laboratory results from ChEMBL document CHEMBL3425421, “Chromone derivatives from a sponge-derived strain of the fungus Corynespora cassiicola” (J Nat Prod, 2015).
Active and inactive are the calls of the source.

What was measured:
Bacillus subtilis = assay: Antibacterial activity against Bacillus subtilis assessed as absence of growth after 18 hrs by conventional broth dilution assay; assay type: functional, organism-based
[1] = molecular target: Acetylcholinesterase (Electrophorus electricus) (UniProt O42275); assay: Inhibition of electric eel AChE using acetylthiocholine iodide as substrate by Ellman's method
Chain of Acetylcholinesterase (Electrophorus electricus) (O42275 24-633 limits assumed): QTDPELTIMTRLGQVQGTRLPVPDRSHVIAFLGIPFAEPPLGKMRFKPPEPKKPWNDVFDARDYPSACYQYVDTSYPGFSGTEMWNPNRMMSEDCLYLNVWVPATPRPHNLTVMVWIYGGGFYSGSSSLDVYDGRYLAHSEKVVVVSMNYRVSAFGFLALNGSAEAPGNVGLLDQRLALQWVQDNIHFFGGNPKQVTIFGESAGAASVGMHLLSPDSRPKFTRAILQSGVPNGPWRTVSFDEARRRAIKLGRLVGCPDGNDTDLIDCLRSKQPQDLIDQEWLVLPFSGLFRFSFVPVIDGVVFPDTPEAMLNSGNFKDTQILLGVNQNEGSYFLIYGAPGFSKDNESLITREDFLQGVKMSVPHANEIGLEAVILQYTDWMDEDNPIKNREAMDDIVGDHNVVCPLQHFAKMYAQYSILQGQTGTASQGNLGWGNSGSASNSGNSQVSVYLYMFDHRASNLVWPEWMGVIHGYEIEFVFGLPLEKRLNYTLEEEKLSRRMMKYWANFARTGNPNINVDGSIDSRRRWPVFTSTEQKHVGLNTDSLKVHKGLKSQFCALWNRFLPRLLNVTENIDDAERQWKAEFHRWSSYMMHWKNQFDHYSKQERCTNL

Bacillus cereus = assay: Antibacterial activity against Bacillus cereus assessed as absence of growth after 18 hrs by conventional broth dilution assay; assay type: functional, organism-based
K562 = assay: Cytotoxicity against human K562 cells by MTT assay; assay type: functional, cell-based
Vibrio parahaemolyticus = assay: Antibacterial activity against Vibrio parahaemolyticus assessed as absence of growth after 18 hrs by conventional broth dilution assay; assay type: functional, organism-based
Pseudomonas putida = assay: Antibacterial activity against Pseudomonas putida assessed as absence of growth after 18 hrs by conventional broth dilution assay; assay type: functional, organism-based
HL-60 = assay: Cytotoxicity against human HL60 cells by MTT assay; assay type: functional, cell-based
Staphylococcus = assay: Antibacterial activity against Staphylococcus albus assessed as absence of growth after 18 hrs by conventional broth dilution assay; assay type: functional, organism-based
Amphibalanus amphitrite = assay: Antifouling activity against Balanus amphitrite Darwin; assay type: functional, organism-based
[2] = tested on: Tetragenococcus halophilus; assay: Antibacterial activity against Tetragenococcus halophilus assessed as absence of growth after 18 hrs by conventional broth dilution assay; assay type: functional
[3] = molecular target: T1, DNA topoisomerase (Bos taurus) (UniProt A0JN73); assay: Inhibition of calf thymus Topoisomerase 1 relaxation activity by plasmid relaxation assay
T1 sequence (whole entry): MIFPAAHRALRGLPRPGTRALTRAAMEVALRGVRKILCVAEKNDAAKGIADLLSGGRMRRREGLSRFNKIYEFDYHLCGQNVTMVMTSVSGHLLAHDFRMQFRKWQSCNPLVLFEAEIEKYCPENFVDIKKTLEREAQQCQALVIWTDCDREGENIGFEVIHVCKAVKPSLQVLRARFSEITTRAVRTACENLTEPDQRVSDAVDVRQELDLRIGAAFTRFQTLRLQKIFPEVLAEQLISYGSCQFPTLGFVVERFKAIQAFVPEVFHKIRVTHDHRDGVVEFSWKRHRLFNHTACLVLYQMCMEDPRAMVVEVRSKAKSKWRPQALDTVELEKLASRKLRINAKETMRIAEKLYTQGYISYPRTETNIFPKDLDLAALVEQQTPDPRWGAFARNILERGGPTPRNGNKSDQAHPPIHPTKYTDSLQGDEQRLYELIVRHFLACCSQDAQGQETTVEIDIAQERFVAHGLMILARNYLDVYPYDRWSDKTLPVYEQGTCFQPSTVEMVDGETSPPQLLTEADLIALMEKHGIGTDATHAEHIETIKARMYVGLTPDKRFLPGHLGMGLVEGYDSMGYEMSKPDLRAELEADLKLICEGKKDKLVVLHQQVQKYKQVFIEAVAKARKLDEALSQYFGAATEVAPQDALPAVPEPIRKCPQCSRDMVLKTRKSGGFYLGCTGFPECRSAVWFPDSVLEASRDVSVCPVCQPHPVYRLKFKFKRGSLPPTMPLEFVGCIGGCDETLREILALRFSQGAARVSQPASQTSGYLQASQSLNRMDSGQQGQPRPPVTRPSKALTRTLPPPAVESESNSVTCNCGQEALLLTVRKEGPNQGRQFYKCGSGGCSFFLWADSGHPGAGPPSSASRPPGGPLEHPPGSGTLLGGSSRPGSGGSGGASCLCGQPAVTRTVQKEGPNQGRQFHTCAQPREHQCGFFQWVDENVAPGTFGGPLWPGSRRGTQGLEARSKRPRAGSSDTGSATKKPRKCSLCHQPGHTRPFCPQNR

HeLa = assay: Cytotoxicity against human HeLa cells by MTT assay; assay type: functional, cell-based
A549 = assay: Cytotoxicity against human A549 cells by MTT assay; assay type: functional, cell-based
Staphylococcus aureus = assay: Antibacterial activity against Staphylococcus aureus assessed as absence of growth after 18 hrs by conventional broth dilution assay; assay type: functional, organism-based

Measured: inhibition

CCOC(=O)Cc1cc(O)cc2c1C(=O)C[C@@H](C[C@H](C)O)O2
inactive: Bacillus subtilis | [1] | Bacillus cereus | K562 | Vibrio parahaemolyticus | Pseudomonas putida | HL-60 | Staphylococcus | Amphibalanus amphitrite | [2] | [3] | HeLa | A549 | Staphylococcus aureus

CCOC(=O)Cc1cc(O)cc2c1C(=O)C[C@H](C[C@H](C)O)O2
inactive: Bacillus subtilis | [1] | Bacillus cereus | K562 | Vibrio parahaemolyticus | Pseudomonas putida | HL-60 | Staphylococcus | Amphibalanus amphitrite | [2] | [3] | HeLa | A549 | Staphylococcus aureus

CC(=O)C[C@H]1CC(=O)c2c(CC(=O)O)cc(O)cc2O1
inactive: Bacillus subtilis | [1] | Bacillus cereus | K562 | Vibrio parahaemolyticus | Pseudomonas putida | HL-60 | Staphylococcus | Amphibalanus amphitrite | [2] | [3] | HeLa | A549 | Staphylococcus aureus

C[C@H](O)C[C@@H]1CC(=O)c2c(CC(=O)O)cc(O)cc2O1
inactive: Bacillus subtilis | [1] | Bacillus cereus | K562 | Vibrio parahaemolyticus | Pseudomonas putida | HL-60 | Staphylococcus | Amphibalanus amphitrite | [2] | [3] | HeLa | A549 | Staphylococcus aureus

COc1c(O)cc(CC(=O)O)c2c1O[C@H](C[C@H](C)O)CC2=O
inactive: Bacillus subtilis | [1] | Bacillus cereus | K562 | Vibrio parahaemolyticus | Pseudomonas putida | HL-60 | Staphylococcus | Amphibalanus amphitrite | [2] | [3] | HeLa | A549 | Staphylococcus aureus

CC(C)COC(=O)Cc1cc(O)cc2c1C(=O)C[C@@H](C[C@H](C)O)O2
inactive: Bacillus subtilis | [1] | Bacillus cereus | K562 | Vibrio parahaemolyticus | Pseudomonas putida | HL-60 | Staphylococcus | Amphibalanus amphitrite | [2] | [3] | HeLa | A549 | Staphylococcus aureus

CC(C)COC(=O)Cc1cc(O)cc2c1C(=O)C[C@H](C[C@H](C)O)O2
inactive: Bacillus subtilis | [1] | Bacillus cereus | K562 | Vibrio parahaemolyticus | Pseudomonas putida | HL-60 | Staphylococcus | Amphibalanus amphitrite | [2] | [3] | HeLa | A549 | Staphylococcus aureus

COc1c(O)cc(CC(=O)O)c2c1O[C@@H](C[C@H](C)O)CC2=O
inactive: Bacillus subtilis | [1] | Bacillus cereus | K562 | Vibrio parahaemolyticus | Pseudomonas putida | HL-60 | Staphylococcus | Amphibalanus amphitrite | [2] | [3] | HeLa | A549 | Staphylococcus aureus

C[C@H](O)C[C@H]1CC(=O)c2c(CC(=O)O)cc(O)cc2O1
inactive: Bacillus subtilis | [1] | Bacillus cereus | K562 | Vibrio parahaemolyticus | Pseudomonas putida | HL-60 | Staphylococcus | Amphibalanus amphitrite | [2] | [3] | HeLa | A549 | Staphylococcus aureus

CCOC(=O)Cc1cc(O)cc2oc(/C=C/C[C@H](C)O)cc(=O)c12
inactive: Bacillus subtilis | [1] | Bacillus cereus | K562 | Vibrio parahaemolyticus | Pseudomonas putida | HL-60 | Staphylococcus | Amphibalanus amphitrite | [2] | [3] | HeLa | A549 | Staphylococcus aureus

Cc1cc(=O)c2c(CC(=O)OCC(C)C)cc(O)cc2o1
inactive: Bacillus subtilis | [1] | Bacillus cereus | K562 | Vibrio parahaemolyticus | Pseudomonas putida | HL-60 | Staphylococcus | Amphibalanus amphitrite | [2] | [3] | HeLa | A549 | Staphylococcus aureus
